From PubChem BioAssay (NCI)
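Results reflect a 48-hour exposure of cells in 96-well plates to compound at five concentrations. At the TGI there is no net growth.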

Legend:
Assay in all cases: NCI tumour cell line growth inhibition, 48 h
PC-3 prostate = test system: PC-3 prostate
CCRF-CEM leukemia = test system: CCRF-CEM leukemia
MDA-N = test system: MDA-N
K-562 leukemia = test system: K-562 leukemia
OVCAR-3 ovarian = test system: OVCAR-3 ovarian
COLO 205 colon = test system: COLO 205 colon
A549 NSCLC = test system: A549 NSCLC
ACHN renal = test system: ACHN renal
UACC-62 melanoma = test system: UACC-62 melanoma
MOLT-4 leukemia = test system: MOLT-4 leukemia
EKVX NSCLC = test system: EKVX NSCLC
HT29 colon = test system: HT29 colon
SR leukemia = test system: SR leukemia
MDA-MB-231 breast = test system: MDA-MB-231 breast
RPMI-8226 leukemia = test system: RPMI-8226 leukemia
HCT-116 colon = test system: HCT-116 colon
SK-MEL-5 melanoma = test system: SK-MEL-5 melanoma
BT-549 breast = test system: BT-549 breast
MCF7 breast = test system: MCF7 breast
SF-295 CNS = test system: SF-295 CNS
HCT-15 colon = test system: HCT-15 colon
NCI-H226 lung = test system: NCI-H226 lung
DU-145 prostate = test system: DU-145 prostate
NCI-H23 lung = test system: NCI-H23 lung
MDA-MB-435 = test system: MDA-MB-435
HOP-62 NSCLC = test system: HOP-62 NSCLC
SNB-75 CNS = test system: SNB-75 CNS
OVCAR-8 ovarian = test system: OVCAR-8 ovarian
IGROV1 ovarian = test system: IGROV1 ovarian
MALME-3M melanoma = test system: MALME-3M melanoma
TK-10 renal = test system: TK-10 renal
SK-MEL-2 melanoma = test system: SK-MEL-2 melanoma
M14 melanoma = test system: M14 melanoma
786-0 renal = test system: 786-0 renal
KM12 colon = test system: KM12 colon
SF-539 CNS = test system: SF-539 CNS
LOX IMVI melanoma = test system: LOX IMVI melanoma
SK-OV-3 ovarian = test system: SK-OV-3 ovarian
UO-31 renal = test system: UO-31 renal
SK-MEL-28 melanoma = test system: SK-MEL-28 melanoma
SN12C renal = test system: SN12C renal
T-47D breast = test system: T-47D breast
NCI-H460 lung = test system: NCI-H460 lung
HCC-2998 colon = test system: HCC-2998 colon
U251 CNS = test system: U251 CNS
HOP-92 NSCLC = test system: HOP-92 NSCLC
SF-268 CNS = test system: SF-268 CNS
SW-620 colon = test system: SW-620 colon
HL-60(TB) leukemia = test system: HL-60(TB) leukemia
SNB-19 CNS = test system: SNB-19 CNS
HS 578T breast = test system: HS 578T breast
OVCAR-5 ovarian = test system: OVCAR-5 ovarian
RXF 393 renal = test system: RXF 393 renal
OVCAR-4 ovarian = test system: OVCAR-4 ovarian
A498 renal = test system: A498 renal
UACC-257 melanoma = test system: UACC-257 melanoma
NCI/ADR-RES ovarian = test system: NCI/ADR-RES ovarian
CAKI-1 renal = test system: CAKI-1 renal

Cc1nnc2n(c1=O)CCCN2C
TGI (PC-3 prostate): > 100 µM | TGI (CCRF-CEM leukemia): > 100 µM | TGI (MDA-N): > 100 µM | TGI (K-562 leukemia): > 100 µM | TGI (OVCAR-3 ovarian): > 100 µM | TGI (COLO 205 colon): > 100 µM | TGI (A549 NSCLC): > 100 µM | TGI (ACHN renal): > 100 µM | TGI (UACC-62 melanoma): > 100 µM | TGI (MOLT-4 leukemia): > 100 µM | TGI (EKVX NSCLC): > 100 µM | TGI (HT29 colon): > 100 µM | TGI (SR leukemia): > 100 µM | TGI (MDA-MB-231 breast): > 100 µM | TGI (RPMI-8226 leukemia): > 100 µM | TGI (HCT-116 colon): > 100 µM | TGI (SK-MEL-5 melanoma): > 100 µM | TGI (BT-549 breast): > 100 µM | TGI (MCF7 breast): > 100 µM | TGI (SF-295 CNS): > 100 µM | TGI (HCT-15 colon): > 100 µM | TGI (NCI-H226 lung): > 100 µM | TGI (DU-145 prostate): > 100 µM | TGI (NCI-H23 lung): > 100 µM | TGI (MDA-MB-435): > 100 µM | TGI (HOP-62 NSCLC): > 100 µM | TGI (SNB-75 CNS): > 100 µM | TGI (OVCAR-8 ovarian): > 100 µM | TGI (IGROV1 ovarian): > 100 µM | TGI (MALME-3M melanoma): > 100 µM | TGI (TK-10 renal): > 100 µM | TGI (SK-MEL-2 melanoma): > 100 µM | TGI (M14 melanoma): > 100 µM | TGI (786-0 renal): > 100 µM | TGI (KM12 colon): > 100 µM | TGI (SF-539 CNS): > 100 µM | TGI (LOX IMVI melanoma): > 100 µM | TGI (SK-OV-3 ovarian): > 100 µM | TGI (UO-31 renal): > 100 µM | TGI (SK-MEL-28 melanoma): > 100 µM | TGI (SN12C renal): > 100 µM | TGI (T-47D breast): > 100 µM | TGI (NCI-H460 lung): > 100 µM | TGI (HCC-2998 colon): > 100 µM | TGI (U251 CNS): > 100 µM | TGI (HOP-92 NSCLC): > 100 µM | TGI (SF-268 CNS): > 100 µM | TGI (SW-620 colon): > 100 µM | TGI (HL-60(TB) leukemia): > 100 µM | TGI (SNB-19 CNS): > 100 µM | TGI (HS 578T breast): > 100 µM | TGI (OVCAR-5 ovarian): > 100 µM | TGI (RXF 393 renal): > 100 µM | TGI (OVCAR-4 ovarian): > 100 µM

COCOc1ccc(C(=O)Oc2cccc3c2OC(C)(C)O3)c(OCOC)c1
TGI (A498 renal): > 100 µM | TGI (CCRF-CEM leukemia): > 100 µM | TGI (MDA-N): > 100 µM | TGI (K-562 leukemia): > 100 µM | TGI (UACC-257 melanoma): > 100 µM | TGI (OVCAR-3 ovarian): > 100 µM | TGI (COLO 205 colon): > 100 µM | TGI (ACHN renal): > 100 µM | TGI (UACC-62 melanoma): 95.7 µM | TGI (MOLT-4 leukemia): > 100 µM | TGI (EKVX NSCLC): > 100 µM | TGI (HT29 colon): > 100 µM | TGI (MDA-MB-231 breast): > 100 µM | TGI (RPMI-8226 leukemia): > 100 µM | TGI (HCT-116 colon): > 100 µM | TGI (SK-MEL-5 melanoma): > 100 µM | TGI (MCF7 breast): > 100 µM | TGI (SF-295 CNS): > 100 µM | TGI (HCT-15 colon): > 100 µM | TGI (NCI/ADR-RES ovarian): > 100 µM | TGI (NCI-H226 lung): > 100 µM | TGI (DU-145 prostate): > 100 µM | TGI (NCI-H23 lung): 26.3 µM | TGI (CAKI-1 renal): > 100 µM | TGI (MDA-MB-435): > 100 µM | TGI (HOP-62 NSCLC): > 100 µM | TGI (SNB-75 CNS): > 100 µM | TGI (OVCAR-8 ovarian): > 100 µM | TGI (IGROV1 ovarian): > 100 µM | TGI (TK-10 renal): > 100 µM | TGI (M14 melanoma): > 100 µM | TGI (786-0 renal): > 100 µM | TGI (KM12 colon): 91.1 µM | TGI (SF-539 CNS): > 100 µM | TGI (LOX IMVI melanoma): > 100 µM | TGI (SK-OV-3 ovarian): > 100 µM | TGI (UO-31 renal): > 100 µM | TGI (SK-MEL-28 melanoma): > 100 µM | TGI (SN12C renal): > 100 µM | TGI (T-47D breast): > 100 µM | TGI (NCI-H460 lung): > 100 µM | TGI (HCC-2998 colon): > 100 µM | TGI (U251 CNS): > 100 µM | TGI (HOP-92 NSCLC): > 100 µM | TGI (SF-268 CNS): > 100 µM | TGI (SW-620 colon): > 100 µM | TGI (HL-60(TB) leukemia): 19 µM | TGI (HS 578T breast): 86 µM | TGI (OVCAR-5 ovarian): > 100 µM | TGI (RXF 393 renal): > 100 µM
